Values quoted from earlier work as cited in paper PMC7894237 (Inflammation Research, 2021).
Read-outs that look alike come from different tables or passages of the source.

Key:
COVID-19 patients = conditions: single 300 mg dose subcutaneously, ten patients
severe cases of COVID-19 [1] = test system: severe cases of COVID-19
patients with COVID-19 [2] = test system: patients with COVID-19
severe cases of COVID-19 [3] = conditions: compared with the control group
AAK1 [4] = test system: AAK1
[5] = test system: patients with rheumatoid arthritis
AAK1 [6] = conditions: compared with ruxolitinib and fedratinib
[7] = test system: COVID-19 particle entry in human lung host cells; conditions: via inhibiting AAK1 and binding to GAK
[8] = test system: patients with COVID-19 who developed ARDS
[9] = test system: patients with multicentric Castleman disease
[10] = not given; remark: listed apart in the source
[11] = not given; remark: listed apart in the source
[12] = not given; remark: listed apart in the source
sHLH/MAS patients = conditions: five adult patients, IV infusions up to 2400 mg/day
[13] = test system: patients with severe sepsis with hyper-inflammation; conditions: phase 3 randomized clinical trial
[14] = test system: patient with severe COVID-19; conditions: anakinra started day 10 after hospital admission
patients with COVID-19 [15] = conditions: nine patients
[16] = test system: patients with SARS infection; conditions: human, in vivo
[17] = test system: SARS-CoV1 replication in Vero cells
[18] = test system: SARS-CoV1 replication in Vero cells; remark: listed apart in the source
influenza = conditions: pre-treatment, same dose of subtypes
patients with COVID-19 [19] = conditions: patient, died 13 days after hospitalization
malaria = conditions: deficient mice
[20] = of those who experienced a worsening

canakinumab: high affinity, monoclonal anti-IL-1β antibody
tolerability (COVID-19 patients): well tolerated, with no recorded injection site reactions, infection, or side-effects

tocilizumab: recombinant humanized anti-interleukin-6 receptor monoclonal antibody
patients whose lymphocyte number returned to normal values (severe cases of COVID-19 [1]; 10/19 patients): 52.6% | patients whose abnormal elevated C-reactive protein returned to normal values (severe cases of COVID-19 [1]; 16/19 patients): 84.2% | patients with lowered oxygen intake (severe cases of COVID-19 [1]; 5 days after administration, 15/ 20 patients): 75% | side effects (severe cases of COVID-19 [1]; all patients): No obvious side effects | patients in whom the high level of CRP was suppressed rapidly (patients with COVID-19 [2]): 11/15 | patients with decreased serum IL-6 levels (patients with COVID-19 [2]; after tocilizumab therapy): ten | need for mechanical ventilation (COVID-19 pneumonia; after tocilizumab therapy): did not require mechanical ventilation | treatment outcome (COVID-19 pneumonia; single administration in combination with hydroxychloroquine): successfully treated | major side-effects: general infections, hepatotoxicity, hypertriglyceridemia, as well as diverticulitis

rilonacept
major side effects (patients with CAPS): reactions at injection-site, upper respiratory tract infections, sinusitis, cough, hypoesthesia, nausea, diarrhea, stomach discomfort, and urinary tract infections | serum CRP level (patients with CAPS; week six, pre-treatment baseline value = 22 mg/L): 2 mg/L

N#CC[C@H](C1CCCC1)n1cc(-c2ncnc3[nH]ccc23)cn1 [ruxolitinib]
clinical improvement (severe cases of COVID-19 [3]): faster clinical improvement

C[C@@H]1CCN(C(=O)CC#N)C[C@@H]1N(C)c1ncnc2[nH]ccc12 [tofacitinib]
inhibition of AAK1 (AAK1 [4]): does not significantly inhibit | CRP level and erythrocyte sedimentation rates [5]: decreased CRP level and erythrocyte sedimentation rates (ESR) | major side effects [5]: increasing both low-density lipoprotein (LDL) and high-density lipoprotein (HDL) levels, and decreasing blood neutrophils

CCS(=O)(=O)N1CC(CC#N)(n2cc(-c3ncnc4[nH]ccc34)cn2)C1 [baricitinib]
affinity to AAK1 (AAK1 [6]): more affinity to AAK1 | COVID-19 particle entry [7]: can reduce the COVID-19 particle entry | IL-6 and GM-CSF levels (IL-6 and GM-CSF levels): can decrease

siltuximab: monoclonal antibody of IL-6
patients with improvement in their condition with a reduced need for ventilation ([8]; 21 patients, follow-up 8 days): 33% | patients with worsening of their condition who required intubation ([8]; 21 patients, follow-up 8 days): 24% | patients with serum CRP levels reduced to within the normal range ([8]; 21 patients, intravenous 700-1200 mg, follow-up 8 days): 16 patients | patients who developed a cerebrovascular event [8, 20]: one | patients who died [8, 20]: one | side effect: vomiting ([9]; 3/60 patients): 5% | side effect: nausea ([9]; 4/60 patients): 7% | side effect: neutropenia ([9]; 4/60 patients): 7% | side effect: fatigue ([9]; 5/60 patients): 8% | side effect: hypertension ([9]; 8/60 patients): 13% | side effect: infection ([9]; 25/60 patients): 42% | deaths ([9]; 60 patients): no deaths | maximum tolerated dose (Castleman’s disease; Castleman’s disease): 100 mg twice weekly | median decrease in hepcidin levels (Castleman’s disease; day 8 of siltuximab treatment): 47% | dose at which maximum suppression of CRP level was observed (Castleman’s disease; every 3 weeks): 12 mg/kg | half-life [10]: 16.3 ± 4.2 days

C=C1CC[C@H](O)C/C1=C/C=C1\CCC[C@]2(C)[C@@H]([C@H](C)/C=C/[C@H](C)C(C)C)CC[C@@H]12 [vitamin D]
expression of pro-inflammatory markers (IL-1α, IL-1β, and TNF-α): suppressing the expression of pro-inflammatory markers

anakinra: recombinant IL-1R antagonist; blocks the binding of both IL-1α and IL-1β to IL-1R
half-life [11]: 4 to 6 h | bioavailability ([11]; subcutaneous route): 95% | plasma concentrations ([11]; subcutaneous route, different chronic inflammatory conditions): adequate and consistent plasma concentrations | side effects observed ([12]; chronic anakinra therapy): reaction at the site of injection and infection | organ toxicities or gastrointestinal disturbances ([12]; specific IL-1β-targeting agents): no organ toxicities or gastrointestinal disturbances | therapeutic effect (sHLH/MAS patients): reduced cytokine storm and subsequent clinical improvement | side effects [13]: without markedly side effects | therapeutic effect [13]: beneficial | day on which patient was discharged from the ICU [14]: 18 days | day on which respiratory function improved [14]: 13 days | therapeutic effect (patients with COVID-19 [15]): prevents mechanical ventilation and decreases serum inflammatory markers | toxicity (patients with COVID-19 [15]): no toxicity

IFN-α
therapeutic effect [16]: inconclusive | effect on SARS-CoV1 replication [17]: inhibited synergistically | sensitivity of SARS-CoV1 to the interferon [18]: only weakly sensitive

B1: interferon-gamma: Type II IFN (protein, UniProt P01579 24-161, looked up)
Interferon gamma: QDPYVKEAENLKKYFNAGHSDVADNGTLFLGILKNWKEESDRKIMQSQIVSFYFKLFKNFKDDQSIQKSVETIKEDMNVKFFNSNKKKRDDFEKLTNYSVTDLNVQRKAIHELIQVMAELSPAAKTGKRKRSQMLFRG
sensitivity of SARS-CoV1 to the interferon [18]: only weakly sensitive

B2: IFN-α5: type I IFN subtype (protein, UniProt P01569 22-189, looked up)
Interferon alpha-5: LGCDLPQTHSLSNRRTLMIMAQMGRISPFSCLKDRHDFGFPQEEFDGNQFQKAQAISVLHEMIQQTFNLFSTKDSSATWDETLLDKFYTELYQQLNDLEACMMQEVGVEDTPLMNVDSILTVRKYFQRITLYLTEKKYSPCAWEVVRAEIMRSFSLSANLQERLRRKE
effect on viral load (influenza): more suppressive effects on the viral load than IFN-α1

B3: IFN-α6: type I IFN subtype (protein, UniProt P05013 21-189, looked up)
Interferon alpha-6: SLDCDLPQTHSLGHRRTMMLLAQMRRISLFSCLKDRHDFRFPQEEFDGNQFQKAEAISVLHEVIQQTFNLFSTKDSSVAWDERLLDKLYTELYQQLNDLEACVMQEVWVGGTPLMNEDSILAVRKYFQRITLYLTEKKYSPCAWEVVRAEIMRSFSSSRNLQERLRRKE
effect on viral load (influenza): more suppressive effects on the viral load than IFN-α1

B4: sarilumab: human monoclonal antibody directed against the alpha subunit of the IL-6R (antibody, chains of the INN, looked up, V domains shown)
VH: EVQLVESGGGLVQPGRSLRLSCAASRFTFDDYAMHWVRQAPGKGLEWVSGISWNSGRIGYADSVKGRFTISRDNAENSLFLQMNGLRAEDTALYYCAKGRDSFDIWGQGTMVTVSS
VL: DIQMTQSPSSVSASVGDRVTITCRASQGISSWLAWYQQKPGKAPKLLIYGASSLESGVPSRFSGSGSGTDFTLTISSLQPEDFASYYCQQANSFPYTFGQGTKLEIK
patients with no improvement in lung function who died (patients with COVID-19 [19]): one

B5: recombinant soluble IL-6R: recombinant soluble IL-6R, mimic the trans-signaling of IL-6 (protein, UniProt P08887 20-365, looked up)
extracellular domain: LAPRRCPAQEVARGVLTSLPGDSVTLTCPGVEPEDNATVHWVLRKPAAGSHPSRWAGMGRRLLLRSVQLHDSGNYSCYRAGRPAGTVHLLVDVPPEEPQLSCFRKSPLSNVVCEWGPRSTPSLTTKAVLLVRKFQNSPAEDFQEPCQYSQESQKFSCQLAVPEGDSSFYIVSMCVASSVGSKFSKTQTFQGCGILQPDPPANITVTAVARNPRWLSVTWQDPHSWNSSFYRLRFELRYRAERSKTFTTWMVKDLQHHCVIHDAWSGLRHVVQLRAQEEFGQGEWSEWSPEAMGTPWTESRSPPAENEVSTPMQALTTNKDDDNILFRDSANATSLPVQDSSSVPLP
modifications: extracellular domain
outcome of malaria (malaria): restores the lethal outcome of malaria
